Assay results reported in US7897326B2, “Peroxisome-proliferator activated receptor-alpha agonists for organ preservation” (University of Pittsburgh-of the Commonwealth System of …, priority 2006, dated 2011).
Structures can show the parent of a compound that is named as a salt.

How the values were obtained:
rat kidneys [1] = assay: Light microscopy histology of isolated rat kidneys perfused 12 hours at 37° C. with L-15; settings: for histological preservation as assessed by light microscopy (screen of pharmacological agents): agent added to L-15 perfusate, 12-hour perfusion at 37° C.; for histology at the light microscopic level / histology score (0 = unrecognizable micro-structure, 10 = 30-minute flushed kidney), FIG. 1: mannitol 20 grams/L, gemfibrozil 50 mg/L, 12-hour perfusion; for histology at the light microscopic level: vs L-15 alone; for histology score (0 = unrecognizable micro-structure, 10 = 30-minute flushed kidney), FIG. 1: blinded observer
Experimental: Animals. Male Sprague-Dawley rats, 15 to 20 weeks-of-age, were housed in a University of Pittsburgh Medical Center animal care facility (temperature 22 EC; light cycle 12 hours; relative humidity 55%). Animals were fed Pro Laboratory RMH 3000 rodent diet (PMI Nutrition Inc., St. Louis, Mo.) and were given water ad libitum. Institutional guidelines for animal welfare were followed, and the Institutional Animal Care and Use Committee approved experimental protocols.
Preparation of Perfusion System. Due to bacterial infection associated with chronic kidney perfusion at 37° C., rat kidneys were perfused in a sterile environment. A glass perfusion system (Hugo Sachs Elektronik-Harvard Apparatus GmbH), which allowed for autoclaving and ultraviolet-light sterilization without damage to the structural integrity of the system, was used in all experiments. This system included the following components arranged in series: a jacketed glass perfusate reservoir for warming and initial oxygenation of perfusate; a jacketed glass-oxygenator for additional oxygenation; a Windkessel chamber for absorption of pulsations; a jacketed heat exchanger for warming the perfusate and trapping bubbles just before the perfusate enters the kidney; and a jacketed organ chamber to keep the kidney's surrounding environment at 37° C.
Drug Preparation. Leibovitz L-15 cell culture medium (Sigma, St. Louis, Mo.) was mixed according to the manufacture's specifications to make 2 liters and 120 mg of penicillin was added. The pH of one liter of L-15 was adjusted to 7.4, and this solution was used during the kidney isolation procedure. The other liter was further prepared with addition of various pharmacological agents, and then the pH adjusted to 7.4. Both solutions were then filtered (0.22 microns) into 1 liter containers. The solution with the experimental drug was then perfused through the kidney perfusion system at a rate of 2.6 ml/min. The other solution was placed underneath the hood where the surgery was to be done.
Kidney Isolation. Kidneys were isolated under a laminar flow hood (Labconco) fitted with a separate roller pump. The operator used sterilized latex gloves with frequent application of 75% alcohol to gloves and instruments throughout the course of the surgery. Gloves were replaced anytime the operator's hands left the surgical hood. Animals were anesthetized with Inactin (90 mg/kg, ip; Sigma), the abdomen was shaved, washed with 75% alcohol, and covered with autoclaved paper towels. The tubing, which would eventually be required for isolation, was assembled and placed in the roller pump. This tubing consisted of three sequentially smaller sections, the middle of which was the pump tubing (Harvard Apparatus). The smallest of the sections was linked, using an adaptor connector, to PE-50 tubing (which had been previously soaked in alcohol for at least 2 days). This PE-50 tubing was for insertion into the renal artery. The largest size tubing was placed into the 1 liter of room temperature L-15. The pump was turned on for a brief time, allowing all tubing to be filled with L-15 medium to remove all air bubbles from the tubing. The skin covering the abdominal cavity was cut horizontally. A light spray of alcohol was applied to the area to remove pieces of hair, followed by a horizontal cut in the same area through the muscle; exposing the internal organs. A section of sterile gauze was set to the left of the animal, and the large/small intestines were gently pulled out of the abdominal cavity and wrapped in the gauze. […] All side branches of the renal artery and vein were ligated and cut. Next, the aorta, vena cava, renal artery and renal vein were identified, cleaned of fat and connective tissue and dissected free, and ligatures were loosely placed around these vessels. […]

rat kidney tissue = assay: Electron microscopy of isolated rat kidneys perfused 12 hours with L-15; settings: one kidney per group; mannitol 20 grams/L, gemfibrozil 50 mg/L; vs L-15 alone
Experimental: Drug Preparation. Leibovitz L-15 cell culture medium (Sigma, St. Louis, Mo.) was mixed according to the manufacture's specifications to make 2 liters and 120 mg of penicillin was added. The pH of one liter of L-15 was adjusted to 7.4, and this solution was used during the kidney isolation procedure. The other liter was further prepared with addition of various pharmacological agents, and then the pH adjusted to 7.4. Both solutions were then filtered (0.22 microns) into 1 liter containers. The solution with the experimental drug was then perfused through the kidney perfusion system at a rate of 2.6 ml/min. The other solution was placed underneath the hood where the surgery was to be done. Kidney Isolation. Kidneys were isolated under a laminar flow hood (Labconco) fitted with a separate roller pump. The operator used sterilized latex gloves with frequent application of 75% alcohol to gloves and instruments throughout the course of the surgery. Gloves were replaced anytime the operator's hands left the surgical hood. Animals were anesthetized with Inactin (90 mg/kg, ip; Sigma), the abdomen was shaved, washed with 75% alcohol, and covered with autoclaved paper towels. The tubing, which would eventually be required for isolation, was assembled and placed in the roller pump. This tubing consisted of three sequentially smaller sections, the middle of which was the pump tubing (Harvard Apparatus). The smallest of the sections was linked, using an adaptor connector, to PE-50 tubing (which had been previously soaked in alcohol for at least 2 days). This PE-50 tubing was for insertion into the renal artery. The largest size tubing was placed into the 1 liter of room temperature L-15. The pump was turned on for a brief time, allowing all tubing to be filled with L-15 medium to remove all air bubbles from the tubing. The skin covering the abdominal cavity was cut horizontally. A light spray of alcohol was applied to the area to remove pieces of hair, followed by a horizontal cut in the same area through the muscle; exposing the internal organs. A section of sterile gauze was set to the left of the animal, and the large/small intestines were gently pulled out of the abdominal cavity and wrapped in the gauze. […] All side branches of the renal artery and vein were ligated and cut. Next, the aorta, vena cava, renal artery and renal vein were identified, cleaned of fat and connective tissue and dissected free, and ligatures were loosely placed around these vessels. The infra-renal aorta was ligated, a small clamp was placed on the aorta just above the ligation but below the renal artery, a cut was made between the clamp and ligation, and the PE-50 tubing was inserted, secured with a ligature and advanced into the left renal artery. […]

Na+-K+-ATPase-α1 = assay: Western blotting and densitometry of Na+-K+-ATPase-α1 in 12-hour perfused rat kidneys; settings: mannitol 20 grams/L, gemfibrozil 50 mg/L; 12-hour perfusion
Experimental: (§1) Drug Preparation. Leibovitz L-15 cell culture medium (Sigma, St. Louis, Mo.) was mixed according to the manufacture's specifications to make 2 liters and 120 mg of penicillin was added. The pH of one liter of L-15 was adjusted to 7.4, and this solution was used during the kidney isolation procedure. The other liter was further prepared with addition of various pharmacological agents, and then the pH adjusted to 7.4. Both solutions were then filtered (0.22 microns) into 1 liter containers. The solution with the experimental drug was then perfused through the kidney perfusion system at a rate of 2.6 ml/min. The other solution was placed underneath the hood where the surgery was to be done. Kidney Isolation. Kidneys were isolated under a laminar flow hood (Labconco) fitted with a separate roller pump. The operator used sterilized latex gloves with frequent application of 75% alcohol to gloves and instruments throughout the course of the surgery. Gloves were replaced anytime the operator's hands left the surgical hood. Animals were anesthetized with Inactin (90 mg/kg, ip; Sigma), the abdomen was shaved, washed with 75% alcohol, and covered with autoclaved paper towels. The tubing, which would eventually be required for isolation, was assembled and placed in the roller pump. This tubing consisted of three sequentially smaller sections, the middle of which was the pump tubing (Harvard Apparatus). […]

rat kidneys [2] = assay: Perfusion pressure of isolated perfused rat kidney over 12 hours; settings: mannitol 20 grams/L, gemfibrozil 50 mg/L
Experimental: Drug Preparation. Leibovitz L-15 cell culture medium (Sigma, St. Louis, Mo.) was mixed according to the manufacture's specifications to make 2 liters and 120 mg of penicillin was added. The pH of one liter of L-15 was adjusted to 7.4, and this solution was used during the kidney isolation procedure. The other liter was further prepared with addition of various pharmacological agents, and then the pH adjusted to 7.4. Both solutions were then filtered (0.22 microns) into 1 liter containers. The solution with the experimental drug was then perfused through the kidney perfusion system at a rate of 2.6 ml/min. The other solution was placed underneath the hood where the surgery was to be done. Kidney Isolation. Kidneys were isolated under a laminar flow hood (Labconco) fitted with a separate roller pump. The operator used sterilized latex gloves with frequent application of 75% alcohol to gloves and instruments throughout the course of the surgery. Gloves were replaced anytime the operator's hands left the surgical hood. Animals were anesthetized with Inactin (90 mg/kg, ip; Sigma), the abdomen was shaved, washed with 75% alcohol, and covered with autoclaved paper towels. The tubing, which would eventually be required for isolation, was assembled and placed in the roller pump. This tubing consisted of three sequentially smaller sections, the middle of which was the pump tubing (Harvard Apparatus). The smallest of the sections was linked, using an adaptor connector, to PE-50 tubing (which had been previously soaked in alcohol for at least 2 days). This PE-50 tubing was for insertion into the renal artery. The largest size tubing was placed into the 1 liter of room temperature L-15. The pump was turned on for a brief time, allowing all tubing to be filled with L-15 medium to remove all air bubbles from the tubing. The skin covering the abdominal cavity was cut horizontally. A light spray of alcohol was applied to the area to remove pieces of hair, followed by a horizontal cut in the same area through the muscle; exposing the internal organs. […]

rat kidneys [3] = assay: Urine collection from isolated perfused rat kidney; settings: 12 hours of perfusion; mannitol 20 grams/L, gemfibrozil 50 mg/L
Experimental: as §1

rat kidneys [4] = assay: Apoptag (TUNEL) staining for apoptosis in 12-hour perfused rat kidneys; settings: mannitol 20 grams/L, gemfibrozil 50 mg/L; vs L-15 alone
Experimental: as §1

Row | Structure (SMILES) | histological preservation as assessed by light microscopy (screen of pharmacological agents) (rat kidneys [1]) | histology at the light microscopic level (rat kidneys [1]) | histology score (0 = unrecognizable micro-structure, 10 = 30-minute flushed kidney), FIG. 1 (rat kidneys [1]) | glomerular ultrastructure (electron microscopy) (rat kidney tissue) | tubular ultrastructure (electron microscopy) (rat kidney tissue) | Na+-K+-ATPase-α1 expression normalized to β-actin, FIG. 2 (Na+-K+-ATPase-α1) | rapid increase in perfusion pressure observed in L-15 alone kidneys, FIG. 3 (rat kidneys [2]) | total urine volume, FIG. 4C (rat kidneys [3]) | degree of apoptosis (Apoptag staining) (rat kidneys [4]) | initial renal perfusion pressure, FIG. 3 (rat kidneys [2]; L-15 alone approximately 50 mm Hg)
1 | NC(=O)c1cccc(N)c1 [3-aminobenzamide] | mild protection |  |  |  |  |  |  |  |  | 
2 | C[C@]12CCC(=O)C=C1CC[C@@H]1[C@@H]2[C@@H](O)C[C@]2(C=O)[C@@H](C(=O)CO)CC[C@@H]12 [Aldosterone, aldosterone] | mild protection |  |  |  |  |  |  |  |  | 
3 | Cc1ccc(C)c(OCCCC(C)(C)C(=O)O)c1 [gemfibrozil] | moderate histological preservation | modestly improved | statistically significantly improved the histological score | slightly improved | only marginally better | slightly higher | delayed | increased total urine volume | reduced the degree of apoptosis | 
4 | OC[C@@H](O)[C@@H](O)[C@H](O)[C@H](O)CO [mannitol] | moderate histological preservation | modestly improved | did not achieve statistical significance | slightly improved | only marginally better | nearly undetectable | more so | increased total urine volume | reduced the degree of apoptosis | approximately 25 mm Hg
5 | Nc1cc(N2CCCCC2)nc(N)[n+]1OS(=O)(=O)[O-] [minoxidil sulfate] | mild protection |  |  |  |  |  |  |  |  | 
6 | O=c1[nH]c(=O)c2[nH]c(=O)[nH]c2[nH]1 [uric acid] | mild protection |  |  |  |  |  |  |  |  | 
